Source: patent US12329733B2, “Acetyl-leucine or a pharmaceutically acceptable salt thereof for improved mobility and cognitive function” (INTRABIO LTD., priority 2016, dated 2025)
Entries after “also recorded” stand apart in the source; their conditions may differ.

Experiments:
[1] = tested on: subjects / patients; test: adverse effects / tolerability; type: in vivo, human; details: for tolerability: 3 g/day one week then 5 g/day; for Adverse Effects: 5 g/day
[2] = tested on: patient with postural imbalance; test: timed Up and Go test (stance up-and-go test); type: in vivo, human; details: Example 6: 5 g/day for 1 month; baseline 25.4 sec
From the text: The patient was examined clinically by means of the following clinical assessments: maximal distance to walk; timed Up and Go test; Scale for the Assessment and Rating of Ataxia (SARA).

[3] = tested on: subjects with no apparent dysfunction in cognitive ability or movement/balance; test: Psychomotor Vigilance Task (Mind Metrics App, 10 trials per test); type: in vivo, human; details: for Statistically significant improvement in PVT performance on treatment?: 5 g/day; for % change in Reaction Time: on-treatment vs baseline
From the text: For example, the Psychomotor Vigilance Task (PVT) is a sustained-attention, reaction-timed task that measures the speed with which subjects respond to a visual stimulus. The subject monitors a screen and presses the screen as quickly as possible upon the appearance of visual stimuli. The visual stimuli will then disappear and reappear (at irregular time intervals) e.g., 10 times over the course of the test, with the subject touching the screen as quickly as possible upon each reappearance. Test performance is quantified from an average of the e.g. 10 reaction times. The subject's reaction speed and alertness was assessed using the Mind Metrics App (Psychomotor Vigilance Task, 10 trials per test). The Psychomotor Vigilance Task (PVT) is a sustained-attention, reaction-timed task that measures the speed with which subjects respond to a visual stimulus. The subject is required to monitor a screen and press the screen as quickly as possible upon the appearance of visual stimuli. The visual stimuli will then disappear and reappear (at irregular time intervals) 10 times over the course of the test, with the subject touching the screen as quickly as possible upon each reappearance. Test performance is quantified from an average of the 10 reaction times. […] The subject was assessed for 2 weeks prior to taking acetyl-leucine, which constitutes the baseline period.

[4] = tested on: patient with postural imbalance; test: timed 8-meter-walking test; type: in vivo, human; details: Example 6: 5 g/day for 1 month; baseline 6.5 sec
From the text: Baseline (prior to commencement of treatment): Maximal distance to walk until the patient could not walk anymore because of fatigue was 1 km. The […] up-and-go test yielded 25.4 sec. SARA yielded 6.5/40. […] Tandem stance and gait was not possible to perform due to an increased fall risk. Mean timed 8-meter-walking test was 6.5 sec.

[5] = tested on: patients with postural imbalance / gait disorder; subjects; test: clinical examination and patient/family reports of balance, gait, dizziness and falls; type: in vivo, human; details: for balance (subjective): 5 g/day
From the text: In addition to the mobility assessments disclosed above, mobility in a subject having a mobility disorder associated with ageing may be tested, for example, using assessments of balance and/or through monitoring the number of falls experienced by the subject.

[6] = tested on: subject suffering from imbalance and gait disorder; test: home setting “get up and go test”; type: in vivo, human; details: Example 1: person, 4.5 g/day
Experimental: “Mobility” refers to the ability of a subject to move. Mobility may be assessed in the elderly using one or more simple tests. As illustrated in the Examples, the “get up and go” test is a simple test capable of measuring mobility. In this test, the speed of sit to stand and walking to a target point is analysed, suitably as described in the Examples. For example, the test may begin with the subject sitting in a chair. At the start of the stop clock, the subject should rise unaided and walk to a target point. The target point may be 2-10 m away, optionally 4-6 m away. The stop clock should be stopped upon the subject reaching the target point. Any change in mobility, for example, over time or through treatment, can be monitored by using the “get up and go” test at two or more time points and comparing the results, again as illustrated in the Examples. Other suitable tests for measuring mobility include those used in the Elderly Mobility Scale (EMS), a 20-point validated assessment tool for the assessment of frail elderly subjects (9), considering locomotion, balance and key position changes. The ability of the subject to move was measured in a home setting “get up and go test”. This test involved the subject rising unaided from their chair and walking the length of their living area to their kitchen. […]

[7] = tested on: patients with gait disorder; test: quantitative gait analysis (“gait-rite”, video); type: in vivo, human
[8] = tested on: patients with Niemann-Pick type C; details: 12 patients, ref (7); cited from earlier work
[9] = tested on: vertigo; details: clinical results reported by various authors; cited from earlier work
[10] = tested on: cerebellar patients; details: cited from earlier work

## CC(=O)NC(CC(C)C)C(=O)O (racemic) [acetyl-DL-leucine]
[1]; Example 1: person, 4.5 g per day, over eighteen months
  side effects: no side effects
[1]; Example 3: person
  tolerability: well tolerated
[1]; Example 4: person
  tolerability: very well tolerated
[1]; Example 6: 2 g/1.5 g/1.5 g per day dosage regimen
  side effects: Sleepiness
[1]; Example 6: reduced to 1 g/1 g/1 g daily after 1 month, listed as Tanganil®
  side effects after dose reduction: cease in these side-effect symptoms; also recorded: have not returned
[1]; Example 7: 66 M, first week on medication
  Adverse Effects: mild dizziness/lightheadedness on one occasion
[1]; Example 8: 29 M, 4 weeks
  Adverse Effects: None reported
[1]; Example 9: 55 F, 4 weeks
  Adverse Effects: None reported
[1]; Example 10: 50 M, 2 weeks
  Adverse Effects: None reported
[1]; Example 11: 53 M, 4 weeks
  Adverse Effects: None reported
[1]; Example 12: 48 F, 4 weeks
  Adverse Effects: None reported
[2]
  stance up-and-go test: 21.2 s
[3]; Example 7: 66 M, p<0.0001
  Statistically significant improvement in PVT performance on treatment?: significant improvement in Psychomotor Vigilance Task performance
[3]; Example 7: 66 M, p<0.0001, listed as acetyl-leucine
  Statistically significant improvement in PVT performance on treatment?: Yes
[3]; Example 7: 66 M
  % change in Reaction Time: −30.86%
[3]; Example 8: 29 M, p<0.05
  Statistically significant improvement in PVT performance on treatment?: small but statistically significant improvement
[3]; Example 8: 29 M, p<0.05, listed as acetyl-leucine
  Statistically significant improvement in PVT performance on treatment?: Yes
[3]; Example 8: 29 M
  % change in Reaction Time: −3.593%
[3]; Example 9: 55 F
  Statistically significant improvement in PVT performance on treatment?: not associated with significant changes
  % change in Reaction Time: 1.408%
[3]; Example 9: 55 F, listed as acetyl-leucine
  Statistically significant improvement in PVT performance on treatment?: No
[3]; Example 10: […]
  Statistically significant improvement in PVT performance on treatment?: small, non-statistically significant decline
  % change in Reaction Time: 8.13%
[3]; Example 10: […], listed as acetyl-leucine
  Statistically significant improvement in PVT performance on treatment?: No
[3]; Example 11: 53 M, p<0.01
  Statistically significant improvement in PVT performance on treatment?: statistically significant improvements
[3]; Example 11: 53 M, p<0.01, listed as acetyl-leucine
  Statistically significant improvement in PVT performance on treatment?: Yes
[3]; Example 11: 53 M
  % change in Reaction Time: −10.24%
[3]; Example 12: 48 F, p<0.001
  Statistically significant improvement in PVT performance on treatment?: statistically significant improvements
[3]; Example 12: 48 F, p<0.001, listed as acetyl-leucine
  Statistically significant improvement in PVT performance on treatment?: Yes
[3]; Example 12: 48 F
  % change in Reaction Time: −7.474%
[4]
  Mean timed 8-meter-walking test: 4.4 s
[5]; Example 1: after one-month course ceased
  balance after ceasing treatment: remained good for two weeks then deteriorated
[5]; Example 1: person, 4.5 g/day, by 7-10 days of treatment
  walking confidence / balance: more confident walking due to improved balance
[5]; Example 1: remains on 4.5 g per day
  improvements of first and second months, on further treatment: have continued
[5]; Example 1: second one-month course, 4.5 g/day
  improvements noticed in first month, on second treatment: rapidly returned
[5]; Example 2: person, balance disorder/senile gait disorder, 3 g/day first week then 5 g/day, Day 14
  dizziness symptoms: improvement of dizziness symptoms
[5]; Example 2: person, 3 g/day first week then 5 g/day, Day 14
  frequency of falls: significant reduction in the frequency of falls
[5]; Example 2: person, Day 14
  hypokinetic-rigid syndrome: No change
[5]; Example 2: treatment suspended Day 56, re-evaluated Day 62
  dizziness symptoms after suspension of treatment: increase of dizziness symptoms two days after suspension of treatment
[5]; Example 3: person
  time when improvement began: second week of treatment
[5]; Example 3: person, 3 g/day one week then 5 g/day, 22 days after beginning treatment
  dizziness and imbalance (spouse feedback): significant reduction of dizziness and imbalance
[5]; Example 3: person, 22 days after beginning treatment
  gait (spouse feedback): significant improvement of gait
[5]; Example 4: person, 3 g/day one week then 5 g/day, 3 weeks after beginning treatment
  gait and imbalance (patient and child report): significantly improved
[5]; Example 5: Day 42, 3 gram per day
  clinical examination of gait and balance: significant improvement of gait and balance
[5]; Example 5: Day 42, 3 gram per day restarted Day 28
  spouse report on re-evaluation: dramatic improvement with impact on functioning and quality of living
[5]; Example 5: Day 42, four falls over three months before Day 0
  falls: No further falls were reported
[5]; Example 5: medication stopped after two weeks
  symptoms after medication was stopped: worsening of symptoms
[5]; Example 5: patient, progressive gait disorder, 3 gram per day for two weeks
  gait (patient and spouse report): considerable improvement of gait
[5]; Example 6: 1 g/1 g/1 g for over 4 months
  improvements on lower dosage: remained unchanged
[5]; Example 6: 5 g/day for 1 month
  sway: became visibly calmer
[5]; Example 6: 5 g/day for 1 month, tandem stance and gait not possible at baseline
  stance with feet together, tandem stance and gait: possible with increased omnidirectional sway
[5]; Example 6: 5 g/day for 1 month, walking and stairs
  postural stability (subjective): subjectively more postural stable
[5]; Example 6: current state on 1 g/1 g/1 g, 2-3 per month before treatment
  frequency of falls: 0-1 /month
[5]; Example 6: therapy period of 1 month, 2-3 per month before
  falls during therapy period: did not record any falls
[5]; Example 7: 66 M
  balance (subjective): improvement in their balance
[5]; Example 8: 29 M
  balance (subjective): no difference in balance
[6]
  faster than pre-treatment in get up and go test: 25%
[6]; seven consecutive days once treatment had started, prior to treatment 40±3 seconds
  average time taken to rise unaided from chair and walk the length of living area to kitchen: 30 ± 2 s
[7]; Example 4: 3 weeks after beginning treatment
  video analysis of gait: now even able to run
[7]; Example 4: after 3 weeks' treatment, before treatment 1.6
  Coefficient of variation (CV) of stride time: CV = (standard deviation/mean) × 100: 1.8
[7]; Example 4: after 3 weeks' treatment, before treatment 9.3
  Spreading width (distance between the heel center of one footprint to the line of movement of the other foot): 8.1 cm
[7]; Example 4: after 3 weeks' treatment, before treatment 27.2
  % of the time of two periods in the gait cycle in which both feet at the same time are in contact with the ground: 25.5%
[7]; Example 4: after 3 weeks' treatment, before treatment 92
  Cadence: 100 steps/minute
[7]; Example 4: after 3 weeks' treatment, before treatment 116
  Step cycle length (distance between two consecutive contacts of a foot on the ground): 116 cm
[7]; Example 4: after 3 weeks' treatment, before treatment 141
  Maximum walking speed (maximal gait velocity): 157 cm/s
[7]; Example 4: person, after 3 weeks' treatment, before treatment 88
  Natural walking speed (self-chosen gait velocity): 96 cm/s
[7]; Example 5: Day 42, 3 gram per day, from 55 cm/sec at Day 0
  self-chosen gait velocity: 62 cm/s
[7]; Example 5: Day 42, 3 gram per day, from 84 cm/sec at Day 0
  maximal gait velocity: 130 cm/s
[8]
  ataxic symptoms: improvement in ataxic symptoms
[9]
  cases with improvement in vertigo symptomology: more than 95%
[10]; case series, ref (5)
  cerebellar symptoms: Improvement of cerebellar symptoms
[10]; ref (6)
  benefit in another case series: did not find benefit
